Laboratory results published in patent US20250064941A1, “SIGLEC LIGANDS, CONJUGATES, AND METHODS OF USE THEREOF” (Osprey Biopharmaceuticals, Inc., priority 2023, published 2025).

Legend:
[1] = biological target: T1, mouse Siglec-2-Fc-Avi (CD22) (Mus musculus, UniProt P35329); assay: SPR binding affinity to mouse CD22; conditions: steady-state analysis
T1 construct: made in house
T1 sequence (P35329 22-708 limits assumed): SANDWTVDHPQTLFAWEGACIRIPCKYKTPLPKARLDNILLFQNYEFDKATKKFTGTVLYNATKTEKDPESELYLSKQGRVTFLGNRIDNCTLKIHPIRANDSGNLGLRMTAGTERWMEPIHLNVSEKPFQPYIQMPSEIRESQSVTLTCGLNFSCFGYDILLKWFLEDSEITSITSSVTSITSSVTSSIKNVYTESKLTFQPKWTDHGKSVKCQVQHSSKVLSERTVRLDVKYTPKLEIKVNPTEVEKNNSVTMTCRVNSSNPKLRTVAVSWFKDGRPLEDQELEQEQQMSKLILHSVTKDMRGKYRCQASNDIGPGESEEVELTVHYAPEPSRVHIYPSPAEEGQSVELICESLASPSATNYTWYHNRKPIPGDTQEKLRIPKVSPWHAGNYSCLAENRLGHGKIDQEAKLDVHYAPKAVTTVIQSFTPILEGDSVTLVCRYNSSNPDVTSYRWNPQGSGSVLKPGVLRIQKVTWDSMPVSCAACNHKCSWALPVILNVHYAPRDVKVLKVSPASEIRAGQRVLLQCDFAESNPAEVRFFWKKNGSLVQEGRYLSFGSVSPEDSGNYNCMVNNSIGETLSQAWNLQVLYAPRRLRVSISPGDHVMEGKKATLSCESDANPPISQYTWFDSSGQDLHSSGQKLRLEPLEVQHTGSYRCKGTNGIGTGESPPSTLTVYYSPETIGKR
Method in brief: (§1)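 Using a Biacore 8K, compounds were tested against biotinylated CD22 captured after sialidase treatment. The running buffer held 1% DMSO, corrected with a 0.5–2% DMSO series. Affinity was derived by steady-state analysis.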

[2] = biological target: T2, human Siglec-2/CD22 protein (Homo sapiens, UniProt P20273); assay: SPR binding affinity to human CD22; conditions: steady-state analysis
T2 construct: purchased Acro Biosystems SI2-H82E3
T2 sequence (P20273 20-847): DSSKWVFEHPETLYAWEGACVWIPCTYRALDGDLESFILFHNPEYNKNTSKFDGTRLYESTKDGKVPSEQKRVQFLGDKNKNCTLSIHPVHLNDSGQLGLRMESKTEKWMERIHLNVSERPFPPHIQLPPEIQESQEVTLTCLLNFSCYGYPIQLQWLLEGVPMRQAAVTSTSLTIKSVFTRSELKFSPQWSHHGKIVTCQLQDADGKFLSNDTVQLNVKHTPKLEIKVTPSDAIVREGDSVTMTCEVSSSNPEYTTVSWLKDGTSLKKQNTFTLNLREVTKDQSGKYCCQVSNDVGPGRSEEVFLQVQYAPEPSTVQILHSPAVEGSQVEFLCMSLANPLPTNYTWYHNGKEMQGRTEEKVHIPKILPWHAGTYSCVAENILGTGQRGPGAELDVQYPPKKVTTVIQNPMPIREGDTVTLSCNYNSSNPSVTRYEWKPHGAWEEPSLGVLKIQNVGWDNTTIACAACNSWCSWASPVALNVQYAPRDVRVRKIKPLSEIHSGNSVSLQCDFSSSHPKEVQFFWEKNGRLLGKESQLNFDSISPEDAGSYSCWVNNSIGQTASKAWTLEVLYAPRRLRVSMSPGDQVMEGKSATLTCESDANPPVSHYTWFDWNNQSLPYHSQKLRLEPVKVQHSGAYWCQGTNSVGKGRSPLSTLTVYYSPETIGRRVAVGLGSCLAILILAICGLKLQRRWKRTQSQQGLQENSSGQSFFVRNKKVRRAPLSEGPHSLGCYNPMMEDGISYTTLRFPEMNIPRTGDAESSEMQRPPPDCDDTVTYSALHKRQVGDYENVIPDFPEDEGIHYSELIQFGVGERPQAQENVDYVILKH
Method in brief: as §1

cynomolgus Siglec-2/CD22 = cynomolgus Siglec-2/CD22 (Macaca fascicularis, UniProt A0A2K5WCZ6); assay: biochemical; format: binding; conditions: SPR, steady-state analysis; read-out: Affinity cyno CD22
cynomolgus Siglec-2/CD22, sequence (A0A2K5WCZ6 entry or part of it): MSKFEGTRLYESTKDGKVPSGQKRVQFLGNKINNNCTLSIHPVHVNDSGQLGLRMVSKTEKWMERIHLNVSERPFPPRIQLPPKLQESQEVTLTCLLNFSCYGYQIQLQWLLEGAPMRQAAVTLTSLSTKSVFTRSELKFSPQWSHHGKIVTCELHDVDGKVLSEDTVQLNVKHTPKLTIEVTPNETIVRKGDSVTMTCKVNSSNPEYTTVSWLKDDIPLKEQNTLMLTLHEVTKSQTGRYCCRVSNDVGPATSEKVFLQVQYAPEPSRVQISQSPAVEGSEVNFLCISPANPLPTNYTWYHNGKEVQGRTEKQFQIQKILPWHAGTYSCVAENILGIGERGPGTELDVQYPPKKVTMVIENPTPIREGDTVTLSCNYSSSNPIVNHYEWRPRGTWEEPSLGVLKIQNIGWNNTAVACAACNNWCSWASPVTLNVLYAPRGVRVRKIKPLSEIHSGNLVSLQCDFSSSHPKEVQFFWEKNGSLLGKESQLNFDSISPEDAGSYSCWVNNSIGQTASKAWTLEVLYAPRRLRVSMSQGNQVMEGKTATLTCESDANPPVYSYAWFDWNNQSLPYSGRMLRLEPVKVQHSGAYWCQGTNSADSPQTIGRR
Method in brief: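 Compound binding measured by steady-state SPR analysis, 120 s dissociation, in HEPES-NaCl-Tween buffer pH 7.5 containing 1% DMSO, DMSO solvent-corrected. Surface: cyno CD22, sialic acids first stripped by SialoExo for 4 h at 37° C., then amine-coupled onto CM5.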

## CC(=O)NCCOCCOCCOCCOCCC(=O)NCCCCCCO[C@]1(C(=O)O)C[C@H](O)[C@@H](NC(=O)CO)[C@H]([C@H](O)[C@H](O)CNC(=O)Cc2ccc(-c3ccccc3)cc2)O1 [Compound 219, (2R,4S,5R,6R)-6-((1R,2R)-3-(2-([1,1′-biphenyl]-4-yl)acetamido)-1,2-dihydroxypropyl)-2-((2,18-dioxo-6,9,12,15-tetraoxa-3,19-diazapentacosan-25-yl)oxy)-4-hydroxy-5-(2-hydroxyacetamido)tetrahydro-2H-pyran-2-carboxylic acid]
[1]
  Kd: < 1000 nM
[2]
  Kd: < 1000 nM
Cynomolgus Siglec-2/CD22
  Kd: < 1000 nM

## C#CCNc1c(NCCCCCCO[C@]2(C(=O)O)C[C@H](O)[C@@H](NC(=O)CO)[C@H]([C@H](O)[C@H](O)CNC(=O)Cc3ccc(C(F)F)cc3)O2)c(=O)c1=O [Compound 220, (2R,4S,5R,6R)-6-((1R,2R)-3-(2-(4-(difluoromethyl)phenyl)acetamido)-1,2-dihydroxypropyl)-2-((6-((3,4-dioxo-2-(prop-2-yn-1-ylamino)cyclobut-1-en-1-yl)amino)hexyl)oxy)-4-hydroxy-5-(2-hydroxyacetamido)tetrahydro-2H-pyran-2-carboxylic acid]
[1]
  Kd: < 1000 nM
[2]
  Kd: < 1000 nM
Cynomolgus Siglec-2/CD22
  Kd: < 1000 nM

## C#CCNc1c(NCCCCCCO[C@]2(C(=O)O)C[C@H](O)[C@@H](NC(=O)CO)[C@H]([C@H](O)[C@H](O)CNC(=O)Cc3ccc(-c4ccccc4)cc3)O2)c(=O)c1=O [Compound 221, (2R,4S,5R,6R)-6-((1R,2R)-3-(2-([1,1′-biphenyl]-4-yl)acetamido)-1,2-dihydroxypropyl)-2-((6-((3,4-dioxo-2-(prop-2-yn-1-ylamino)cyclobut-1-en-1-yl)amino)hexyl)oxy)-4-hydroxy-5-(2-hydroxyacetamido)tetrahydro-2H-pyran-2-carboxylic acid]
[1]
  Kd: < 1000 nM
[2]
  Kd: < 1000 nM
Cynomolgus Siglec-2/CD22
  Kd: < 1000 nM

## CCCNC(=O)CCOCCOCCOCCn1cc(CCOc2ccc(CO[C@]3(C(=O)O)C[C@H](O)[C@@H](NC(N)=O)[C@H]([C@H](O)[C@H](O)CNC(=O)Cc4ccc(Cl)cc4)O3)cc2)nn1 [Compound 222, (2R,4S,5R,6R)-6-((1R,2R)-3-(2-(4-chlorophenyl)acetamido)-1,2-dihydroxypropyl)-4-hydroxy-2-((4-(2-(1-(12-oxo-3,6,9-trioxa-13-azahexadecyl)-1H-1,2,3-triazol-4-yl)ethoxy)benzyl)oxy)-5-ureidotetrahydro-2H-pyran-2-carboxylic acid]
[1]
  Kd: < 1000 nM
[2]
  Kd: < 1000 nM
Cynomolgus Siglec-2/CD22
  Kd: < 1000 nM

## C#CCOCCCCCCO[C@]1(C(=O)O)C[C@H](O)[C@@H](NC(=O)C(N)=O)[C@H]([C@H](O)[C@H](O)CNC(=O)Cc2ccc(Cl)cc2)O1 [Compound 223, (2R,4S,5R,6R)-5-(2-amino-2-oxoacetamido)-6-((1R,2R)-3-(2-(4-chlorophenyl)acetamido)-1,2-dihydroxypropyl)-4-hydroxy-2-((6-(prop-2-yn-1-yloxy)hexyl)oxy)tetrahydro-2H-pyran-2-carboxylic acid]
[1]
  Kd: 1000 to 10000 nM
[2]
  Kd: < 1000 nM
Cynomolgus Siglec-2/CD22
  Kd: 1000 to 10000 nM

## C#CCNc1c(NCCCCCCO[C@]2(C(=O)O)C[C@H](O)[C@@H](NC(N)=O)[C@H]([C@H](O)[C@H](O)CNC(=O)Cc3ccc(-c4ccccc4)cc3)O2)c(=O)c1=O [Compound 224, (2R,4S,5R,6R)-6-((1R,2R)-3-(2-([1,1′-biphenyl]-4-yl)acetamido)-1,2-dihydroxypropyl)-2-((6-((3,4-dioxo-2-(prop-2-yn-1-ylamino)cyclobut-1-en-1-yl)amino)hexyl)oxy)-4-hydroxy-5-ureidotetrahydro-2H-pyran-2-carboxylic acid]
[1]
  Kd: < 1000 nM
[2]
  Kd: < 1000 nM
Cynomolgus Siglec-2/CD22
  Kd: < 1000 nM

## C#CCOCCOCCO[C@]1(C(=O)O)C[C@H](O)[C@@H](NS(=O)(=O)NC)[C@H]([C@H](O)[C@H](O)CNC(=O)Cc2ccc(-c3ccc(O)cc3)cc2)O1 [Compound 225, (2R,4S,5R,6R)-6-((1R,2R)-1,2-dihydroxy-3-(2-(4′-hydroxy-[1,1′-biphenyl]-4-yl)acetamido)propyl)-4-hydroxy-5-((N-methylsulfamoyl)amino)-2-(2-(2-(prop-2-yn-1-yloxy)ethoxy)ethoxy)tetrahydro-2H-pyran-2-carboxylic acid]
[1]
  Kd: > 10000 nM
[2]
  Kd: > 10000 nM
Cynomolgus Siglec-2/CD22
  Kd: > 10000 nM

## C#CCNC(=O)CCOCCOCCO[C@]1(c2nn[nH]n2)C[C@H](O)[C@@H](NC(=O)CO)[C@H]([C@H](O)[C@H](O)CNC(=O)Cc2ccc(Cl)cc2)O1 [Compound 226, 3-(2-(2-(((2R,4S,5R,6R)-6-((1R,2R)-3-(2-(4-chlorophenyl)acetamido)-1,2-dihydroxypropyl)-4-hydroxy-5-(2-hydroxyacetamido)-2-(2H-tetrazol-5-yl)tetrahydro-2H-pyran-2-yl)oxy)ethoxy)ethoxy)-N-(prop-2-yn-1-yl)propanamide]
[1]
  Kd: > 10000 nM
[2]
  Kd: > 10000 nM
Cynomolgus Siglec-2/CD22
  Kd: > 10000 nM

## C#CCOCCOCCNc1c(NCCCCCCO[C@]2(C(=O)O)C[C@H](O)[C@@H](NC(=O)CO)[C@H]([C@H](O)[C@H](O)CNC(=O)c3cccc(Cl)c3)O2)c(=O)c1=O [Compound 227, (2R,4S,5R,6R)-6-((1R,2R)-3-(3-chlorobenzamido)-1,2-dihydroxypropyl)-2-((6-((3,4-dioxo-2-((2-(2-(prop-2-yn-1-yloxy)ethoxy)ethyl)amino)cyclobut-1-en-1-yl)amino)hexyl)oxy)-4-hydroxy-5-(2-hydroxyacetamido)tetrahydro-2H-pyran-2-carboxylic acid]
[1]
  Kd: 1000 to 10000 nM
[2]
  Kd: < 1000 nM
Cynomolgus Siglec-2/CD22
  Kd: < 1000 nM

## CC(=O)NCCOCCOCCOCCOCCNC(=O)CCCCCO[C@]1(C(=O)O)C[C@H](O)[C@@H](NC(=O)CO)[C@H]([C@H](O)[C@H](O)CNC(=O)Cc2ccc(Cl)cc2)O1 [Compound 228, (2R,4S,5R,6R)-6-((1R,2R)-3-(2-(4-chlorophenyl)acetamido)-1,2-dihydroxypropyl)-2-((2,19-dioxo-6,9,12,15-tetraoxa-3,18-diazatetracosan-24-yl)oxy)-4-hydroxy-5-(2-hydroxyacetamido)tetrahydro-2H-pyran-2-carboxylic acid]
[1]
  Kd: 1000 to 10000 nM
[2]
  Kd: 1000 to 10000 nM
Cynomolgus Siglec-2/CD22
  Kd: < 1000 nM

## C#CCOCCOCCNc1c(NCCCCCCO[C@]2(C(=O)O)C[C@H](O)[C@@H](NC(=O)CO)[C@H]([C@H](O)[C@H](O)CNC(=O)c3ccc(C(F)F)cc3)O2)c(=O)c1=O [Compound 231, (2R,4S,5R,6R)-6-((1R,2R)-3-(4-(difluoromethyl)benzamido)-1,2-dihydroxypropyl)-2-((6-((3,4-dioxo-2-((2-(2-(prop-2-yn-1-yloxy)ethoxy)ethyl)amino)cyclobut-1-en-1-yl)amino)hexyl)oxy)-4-hydroxy-5-(2-hydroxyacetamido)tetrahydro-2H-pyran-2-carboxylic acid]
[1]
  Kd: 1000 to 10000 nM
[2]
  Kd: < 1000 nM
Cynomolgus Siglec-2/CD22
  Kd: < 1000 nM

## C#CCOCCOCCNc1c(NCCCCCCO[C@]2(C(=O)O)C[C@H](O)[C@@H](NC(=O)CO)[C@H]([C@H](O)[C@H](O)CNC(=O)c3ccc(F)cc3)O2)c(=O)c1=O [Compound 232, (2R,4S,5R,6R)-2-((6-((3,4-dioxo-2-((2-(2-(prop-2-yn-1-yloxy)ethoxy)ethyl)amino)cyclobut-1-en-1-yl)amino)hexyl)oxy)-6-((1R,2R)-3-(4-fluorobenzamido)-1,2-dihydroxypropyl)-4-hydroxy-5-(2-hydroxyacetamido)tetrahydro-2H-pyran-2-carboxylic acid]
[1]
  Kd: > 10000 nM
[2]
  Kd: 1000 to 10000 nM
Cynomolgus Siglec-2/CD22
  Kd: 1000 to 10000 nM
